# Experimental data as given in ChEMBL document CHEMBL4834486 (Bioorg Med Chem, 2021).
# Calls of active or inactive are those of the source. No cut-off for these calls is given here.
# Assays:
# MCF7 = assay: Antiproliferative activity against human MCF7 cells assessed as inhibition of cell proliferation measured after 72 hrs by CCK-8 assay; assay type: functional, cell-based; conditions: MCF7, 72 h
# MDA-MB-231 [1] = assay: Antiproliferative activity against human MDA-MB-231 cells assessed as inhibition of cell proliferation measured after 72 hrs by CCK-8 assay; assay type: functional, cell-based; conditions: MDA-MB-231, 72 h
# MCF-10A = assay: Cytotoxicity against human MCF-10A cells assessed as inhibition of cell proliferation measured after 72 hrs by CCK-8 assay; assay type: cell-based
# MDA-MB-231 [2] = assay: Induction of apoptosis in human MDA-MB-231 cells assessed as early apoptotic cells at 1.25 uM measured after 72 hrs by Annexin V-FITC/PI staining based flow cytometry method (reference value: 4.42%); assay type: functional
# MDA-MB-231 [3] = assay: Cell cycle arrest in human MDA-MB-231 cells assessed as accumulation of cells at S phase at 2.5 uM measured after 72 hrs by PI staining based flow cytometry method (reference value: 36.19%); assay type: functional
# MDA-MB-231 [4] = assay: Induction of apoptosis in human MDA-MB-231 cells assessed as early apoptotic cells at 2.5 uM measured after 72 hrs by Annexin V-FITC/PI staining based flow cytometry method (reference value: 4.42%); assay type: functional
# MDA-MB-231 [5] = assay: Cell cycle arrest in human MDA-MB-231 cells assessed as accumulation of cells at G2/M phase at 5 uM measured after 72 hrs by PI staining based flow cytometry method (reference value: 12.24%); assay type: functional
# MDA-MB-231 [6] = assay: Induction of apoptosis in human MDA-MB-231 cells assessed as viable cells at 5 uM measured after 72 hrs by Annexin V-FITC/PI staining based flow cytometry method (reference value: 93.27%); assay type: functional; conditions: read-out: Activity
# MDA-MB-231 [7] = assay: Cell cycle arrest in human MDA-MB-231 cells assessed as accumulation of cells at G2/M phase at 2.5 uM measured after 72 hrs by PI staining based flow cytometry method (reference value: 12.24%); assay type: functional
# MDA-MB-231 [8] = assay: Induction of apoptosis in human MDA-MB-231 cells assessed as necrotic cells at 2.5 uM measured after 72 hrs by Annexin V-FITC/PI staining based flow cytometry method (reference value: 0.97%); assay type: functional
# MDA-MB-231 [9] = assay: Induction of apoptosis in human MDA-MB-231 cells assessed as late apoptotic cells at 2.5 uM measured after 72 hrs by Annexin V-FITC/PI staining based flow cytometry method (reference value: 1.34%); assay type: functional
# MDA-MB-231 [10] = assay: Induction of apoptosis in human MDA-MB-231 cells assessed as late apoptotic cells at 1.25 uM measured after 72 hrs by Annexin V-FITC/PI staining based flow cytometry method (reference value: 1.34%); assay type: functional
# MDA-MB-231 [11] = assay: Induction of apoptosis in human MDA-MB-231 cells assessed as early apoptotic cells at 5 uM measured after 72 hrs by Annexin V-FITC/PI staining based flow cytometry method (reference value: 4.42%); assay type: functional
# MDA-MB-231 [12] = assay: Cell cycle arrest in human MDA-MB-231 cells assessed as accumulation of cells at G2/M phase at 1.25 uM measured after 72 hrs by PI staining based flow cytometry method (reference value: 12.24%); assay type: functional
# MDA-MB-231 [13] = assay: Inhibition of cell migration in human MDA-MB-231 cells measured after 24 hrs by scratch wound healing assay; assay type: functional, cell-based; conditions: dose 1.25-5 µM
# MDA-MB-231 [14] = assay: Induction of apoptosis in human MDA-MB-231 cells assessed as necrotic cells at 1.25 uM measured after 72 hrs by Annexin V-FITC/PI staining based flow cytometry method (reference value: 0.97%); assay type: functional
# MDA-MB-231 [15] = assay: Inhibition of cell invasion in human MDA-MB-231 cells at 1.25 to 5 uM measured after 24 hrs by transwell assay; assay type: functional, cell-based; conditions: dose 1.25-5 µM
# MDA-MB-231 [16] = assay: Induction of apoptosis in human MDA-MB-231 cells assessed as viable cells at 2.5 uM measured after 72 hrs by Annexin V-FITC/PI staining based flow cytometry method (reference value: 93.27%); assay type: functional; conditions: read-out: Activity
# MDA-MB-231 [17] = assay: Induction of apoptosis in human MDA-MB-231 cells assessed as necrotic cells at 5 uM measured after 72 hrs by Annexin V-FITC/PI staining based flow cytometry method (reference value: 0.97%); assay type: functional
# MDA-MB-231 [18] = assay: Cell cycle arrest in human MDA-MB-231 cells assessed as accumulation of cells at G1 phase at 2.5 uM measured after 72 hrs by PI staining based flow cytometry method (reference value: 51.58%); assay type: functional
# MDA-MB-231 [19] = assay: Cell cycle arrest in human MDA-MB-231 cells assessed as accumulation of cells at G1 phase at 5 uM measured after 72 hrs by PI staining based flow cytometry method (reference value: 51.58%); assay type: functional
# MDA-MB-231 [20] = assay: Induction of apoptosis in human MDA-MB-231 cells assessed as late apoptotic cells at 5 uM measured after 72 hrs by Annexin V-FITC/PI staining based flow cytometry method (reference value: 1.34%); assay type: functional
# MDA-MB-231 [21] = assay: Induction of apoptosis in human MDA-MB-231 cells assessed as viable cells at 1.25 uM measured after 72 hrs by Annexin V-FITC/PI staining based flow cytometry method (reference value: 93.27%); assay type: functional; conditions: read-out: Activity
# MDA-MB-231 [22] = assay: Induction of ROS generation in human MDA-MB-231 cells at 5 uM measured after 72 hrs by DCFH-DA staining based flow cytometry (reference value: 4.37%); assay type: functional
# MDA-MB-231 [23] = assay: Induction of DNA damage in human MDA-MB-231 cells assessed as increase in generation of endogenous double strand DNA break adducts measured after 72 hrs by comet assay; assay type: functional, cell-based; conditions: dose 1.25-5 µM
# MDA-MB-231 [24] = assay: Inhibition of cell adhesion in human MDA-MB-231 cells measured after 72 hrs by fluorescence microscopy; assay type: functional, cell-based; conditions: dose 1.25-5 µM
# MDA-MB-231 [25] = assay: Cell cycle arrest in human MDA-MB-231 cells assessed as accumulation of cells at S phase at 1.25 uM measured after 72 hrs by PI staining based flow cytometry method (reference value: 36.19%); assay type: functional
# MDA-MB-231 [26] = assay: Cell cycle arrest in human MDA-MB-231 cells assessed as accumulation of cells at G1 phase at 1.25 uM measured after 72 hrs by PI staining based flow cytometry method (reference value: 51.58%); assay type: functional
# MDA-MB-231 [27] = assay: Cell cycle arrest in human MDA-MB-231 cells assessed as accumulation of cells at S phase at 5 uM measured after 72 hrs by PI staining based flow cytometry method (reference value: 36.19%); assay type: functional
# MDA-MB-231 [28] = assay: Induction of ROS generation in human MDA-MB-231 cells at 2.5 uM measured after 72 hrs by DCFH-DA staining based flow cytometry (reference value: 4.37%); assay type: functional
# MDA-MB-231 [29] = assay: Induction of ROS generation in human MDA-MB-231 cells at 1.25 uM measured after 72 hrs by DCFH-DA staining based flow cytomtery (reference value: 4.37%); assay type: functional
# MDA-MB-231 [30] = assay: Induction of DNA damage in human MDA-MB-231 cells assessed as increase in tail DNA measured after 72 hrs by comet assay; assay type: functional, cell-based; conditions: dose 1.25-5 µM
structure (smiles),measurement,setting,value
O=CN[C@@H](Cc1ccc(N(CCCl)CCCl)cc1)C(=O)OCc1cc2c(cn1)[nH]c1ccccc12,IC50,MCF7,2.7 µM
same,IC50,MDA-MB-231 [1],6.53 µM
same,IC50,MCF-10A,25.7 µM
Cc1nc(CO)cc2c1[nH]c1ccccc12,IC50,MCF7,11.3 µM
same,IC50,MDA-MB-231 [1],> 20 µM
same,IC50,MCF-10A,> 40 µM
OCc1cc2c(cn1)[nH]c1ccccc12,IC50,MCF7,> 20 µM
same,IC50,MDA-MB-231 [1],> 20 µM
same,IC50,MCF-10A,> 40 µM
COc1ccc(-c2nc(COC(=O)[C@H](Cc3ccc(N(CCCl)CCCl)cc3)NC=O)cc3c2[nH]c2ccccc23)cc1,IC50,MCF7,4.23 µM
same,IC50,MDA-MB-231 [1],5.72 µM
same,IC50,MCF-10A,31.9 µM
COc1cccc2c1C(=O)c1c(O)c3c(c(O)c1C2=O)C[C@@](O)(C(=O)CO)C[C@@H]3O[C@H]1C[C@H](N)[C@H](O)[C@H](C)O1 [DOXORUBICIN],IC50,MDA-MB-231 [1],2.76 µM
COC(=O)[C@H](Cc1ccc(N(CCCl)CCCl)cc1)NC(=O)CCCC(=O)OCc1cc2c(cn1)[nH]c1ccccc12,IC50,MCF7,> 20 µM
same,IC50,MDA-MB-231 [1],> 20 µM
same,IC50,MCF-10A,> 40 µM
COC(=O)[C@H](Cc1ccc(N(CCCl)CCCl)cc1)NC(=O)CCC(=O)OCc1cc2c([nH]c3ccccc32)c(C)n1,IC50,MCF7,> 20 µM
same,IC50,MDA-MB-231 [1],> 20 µM
same,IC50,MCF-10A,> 40 µM
CC(C)(C)OC(=O)N[C@@H](Cc1ccc(N(CCCl)CCCl)cc1)C(=O)OCc1cc2c(cn1)[nH]c1ccccc12,IC50,MCF7,3.43 µM
same,IC50,MDA-MB-231 [1],16.9 µM
same,IC50,MCF-10A,> 40 µM
O=C(OCc1cc2c(cn1)[nH]c1ccccc12)c1ccc(N(CCCl)CCCl)cc1,IC50,MCF7,2.31 µM
same,IC50,MDA-MB-231 [1],9.65 µM
same,IC50,MCF-10A,> 40 µM
N[C@@H](Cc1ccc(N(CCCl)CCCl)cc1)C(=O)O [MELPHALAN],IC50,MCF7,8.48 µM
same,IC50,MDA-MB-231 [1],> 20 µM
same,IC50,MCF-10A,> 40 µM
COC(=O)[C@H](Cc1ccc(N(CCCl)CCCl)cc1)NC(=O)CCCC(=O)OCc1cc2c([nH]c3ccccc32)c(C)n1,IC50,MCF7,> 20 µM
same,IC50,MDA-MB-231 [1],> 20 µM
same,IC50,MCF-10A,> 40 µM
COC(=O)[C@H](Cc1ccc(N(CCCl)CCCl)cc1)NC(=O)CCC(=O)OCc1cc2c(cn1)[nH]c1ccccc12,IC50,MCF7,> 20 µM
same,IC50,MDA-MB-231 [1],> 20 µM
same,IC50,MCF-10A,> 40 µM
COc1ccc(-c2nc(CO)cc3c2[nH]c2ccccc23)cc1,IC50,MCF7,15.8 µM
same,IC50,MDA-MB-231 [1],> 20 µM
same,IC50,MCF-10A,> 40 µM
COC(=O)[C@H](Cc1ccc(N(CCCl)CCCl)cc1)NC(=O)CCCC(=O)OCc1cc2c([nH]c3ccccc32)c(-c2ccc(OC)cc2)n1,IC50,MCF7,> 20 µM
same,IC50,MDA-MB-231 [1],> 20 µM
same,IC50,MCF-10A,> 40 µM
Cc1nc(COC(=O)[C@H](Cc2ccc(N(CCCl)CCCl)cc2)NC(=O)OC(C)(C)C)cc2c1[nH]c1ccccc12,IC50,MCF7,4.9 µM
same,IC50,MDA-MB-231 [1],17.5 µM
same,IC50,MCF-10A,> 40 µM
COc1ccc(-c2nc(COC(=O)[C@H](Cc3ccc(N(CCCl)CCCl)cc3)NC(=O)OC(C)(C)C)cc3c2[nH]c2ccccc23)cc1,IC50,MCF7,5.31 µM
same,IC50,MDA-MB-231 [1],19.6 µM
same,IC50,MCF-10A,> 40 µM
Cc1nc(COC(=O)[C@H](Cc2ccc(N(CCCl)CCCl)cc2)NC=O)cc2c1[nH]c1ccccc12,Activity,MDA-MB-231 [2],8.77%
same,Activity,MDA-MB-231 [3],38.72%
same,Activity,MDA-MB-231 [4],12.24%
same,Activity,MDA-MB-231 [5],20.2%
same,viability at 5 µM,MDA-MB-231 [6],48.5%
same,Activity,MDA-MB-231 [7],16.45%
same,Activity,MDA-MB-231 [8],3.39%
same,Activity,MDA-MB-231 [9],10.22%
same,Activity,MDA-MB-231 [10],9.71%
same,Activity,MDA-MB-231 [11],23.28%
same,Activity,MDA-MB-231 [12],13.62%
same,inhibition,MDA-MB-231 [13],Dose-Dependent Effect
same,Activity,MDA-MB-231 [14],3.49%
same,inhibition,MDA-MB-231 [15],Active
same,viability at 2.5 µM,MDA-MB-231 [16],74.2%
same,Activity,MDA-MB-231 [17],5.32%
same,Activity,MDA-MB-231 [18],44.83%
same,IC50,MCF7,1.79 µM
same,Activity,MDA-MB-231 [19],42.06%
same,IC50,MDA-MB-231 [1],4.96 µM
same,IC50,MCF-10A,22.5 µM
same,Activity,MDA-MB-231 [20],22.85%
same,viability at 1.25 µM,MDA-MB-231 [21],78%
same,Activity,MDA-MB-231 [22],47.15%
same,Activity,MDA-MB-231 [23],Dose-Dependent Effect
same,inhibition,MDA-MB-231 [24],Dose-Dependent Effect
same,Activity,MDA-MB-231 [25],38.53%
same,Activity,MDA-MB-231 [26],47.85%
same,Activity,MDA-MB-231 [27],37.74%
same,Activity,MDA-MB-231 [28],20.33%
same,Activity,MDA-MB-231 [29],17.2%
same,Activity,MDA-MB-231 [30],Dose-Dependent Effect
COc1ccc(-c2nc(COC(=O)c3ccc(N(CCCl)CCCl)cc3)cc3c2[nH]c2ccccc23)cc1,IC50,MCF7,2.35 µM
same,IC50,MDA-MB-231 [1],14.5 µM
same,IC50,MCF-10A,35.1 µM
Cc1nc(COC(=O)c2ccc(N(CCCl)CCCl)cc2)cc2c1[nH]c1ccccc12,IC50,MCF7,3.78 µM
same,IC50,MDA-MB-231 [1],7.48 µM
same,IC50,MCF-10A,26.4 µM
COC(=O)[C@H](Cc1ccc(N(CCCl)CCCl)cc1)NC(=O)CCC(=O)OCc1cc2c([nH]c3ccccc32)c(-c2ccc(OC)cc2)n1,IC50,MCF7,16.9 µM
same,IC50,MDA-MB-231 [1],> 20 µM
same,IC50,MCF-10A,> 40 µM
